These results are taken from patent US20090185973A1, “METHODS, COMPOSITIONS, UNIT DOSAGE FORMS, AND KITS FOR PHARMACOLOGIC STRESS TESTING WITH REDUCED SIDE EFFECTS” (ADENOBIO N.V., priority 2008, published 2009).

One series concerns the target A2a receptor (Homo sapiens, UniProt P29274). Conditions: in vivo; cited from earlier work.
In another series the test system is guinea-pig. Conditions: pretreatment dipyridamole 0.025 mg (n = 5); after 14C-adenosine IV injection; mean; cited from earlier work.
The conditions of series [1]: cited from earlier work.
The subject of series [2] is patients with normal coronary reserve. Kind of series: Priming dose effect: time to peak and return to baseline, concurrent administration (Example 4). Format: in vivo, human. An excerpt:
As a test, a low priming dose of dipyridamole was combined with the concurrent administration of the two drugs to determine whether the time to peak and the occurrence of near maximal hyperaemia could be accelerated, especially when infusion time is reduced by, for example, one minute.

A further series has as its system patients. Format: in vivo, human. Particulars: for PV Max, individual patients / MV Max, individual patients / MV Min, individual patients / PV Min, individual patients: listed as DIP.
Series [3] deals with patients suffering from ischemic heart disease. Kind of series: Transthoracic doppler echocardiography (TTDE) blood flow velocity in LAD, sequential administration (Example 1). It counts as in vivo, human. Particulars: lower doses of dipyridamole (10, 14 and 18 μg/kg). The procedure:
In the combined administration, each of the two agents was administered at a dosage lower than its clinically preferred dosage when used as a single agent for myocardial perfusion imaging. Effects were measured using noninvasive transthoracic doppler echocardiography (TTDE).
Primary efficacy end-points were peak and mean diastolic flow velocities (measured as reflecting coronary blood flow values). The secondary end-point was patient tolerance to the procedure. The protocol was designed as follows.
Forty (40) consecutive patients suffering from ischemic heart disease were enrolled. Each patient served as their own control.
[…] Total doses are between about 4-6% of the lowest single-agent total dose of dipyridamole (i.e., 0.56 mg/kg, infused over a total of 4 minutes).
This dose is half the standard single-agent dosage rate of 140 μg/kg/min.

[4] abbreviates: DIP dose 28 μg/kg, ADE 140 μg/kg/min.
Where [5] appears, read: DIP dose 35 μg/kg, ADE 140 μg/kg/min.
The mark [6] stands for this setting: DIP dose 40 μg/kg, ADE 140 μg/kg/min.

Where “and” joins values, the source holds several entries; their conditions need not be identical. Equal entries are not always repeated. Where two headings read alike, the source gives them in different places.

Chain of A2a receptor (P29274 whole entry): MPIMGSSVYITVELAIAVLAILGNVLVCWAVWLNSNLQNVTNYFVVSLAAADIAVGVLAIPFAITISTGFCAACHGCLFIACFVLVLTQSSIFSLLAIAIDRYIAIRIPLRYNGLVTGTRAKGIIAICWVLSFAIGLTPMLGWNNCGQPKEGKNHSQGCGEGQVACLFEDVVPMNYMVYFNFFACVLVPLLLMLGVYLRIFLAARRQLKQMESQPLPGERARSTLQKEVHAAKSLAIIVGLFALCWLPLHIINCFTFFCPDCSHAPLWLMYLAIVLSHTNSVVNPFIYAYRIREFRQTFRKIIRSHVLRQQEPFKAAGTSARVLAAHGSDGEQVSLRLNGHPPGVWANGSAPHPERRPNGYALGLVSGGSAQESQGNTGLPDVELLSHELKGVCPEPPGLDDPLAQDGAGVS

As to `Nc1nc(N/N=C/C2CCCCC2)nc2c1ncn2[C@@H]1O[C@H](CO)[C@@H](O)[C@H]1O` [binodenoson], the Duration of action on A2a receptor is 10 ± 6 min.

On to `OCCN(CCO)c1nc(N2CCCCC2)c2nc(N(CCO)CCO)nc(N3CCCCC3)c2n1` [dipyridamole], for which, in the series on guinea-pig, the “14C distribution, Heart” value was 2.1 ± 1.01 percentage of ^14C administered and the “14C distribution, Lungs” value was 71.4 ± 4.9 (p < 0.05) percentage of ^14C administered. For the same molecule, in series [1] (saline), the Solubility in saline result was “poorly soluble”. In addition, the “Stability in the long term” value in series [1] (solvents at pH>4) is reported as “unstable”. For the same molecule, the “Effect of priming dose on time to peak” value in series [2] (dipyridamole priming dose 0.05 mg, 3 patients) was “did not modify”. In addition, the “Effect of priming dose on time to peak” value in series [2] (dipyridamole priming dose 0.1 mg) is reported as “did modify”. For the same molecule, the “Effect of priming dose on time to peak” value in series [2] (dipyridamole priming dose 0.3 mg, 3 patients) was “did not perform better than 0.1 mg”. Moreover, in the series with patients (DIP dose 28 μg/kg bolus alone, ADE 140 μg/kg/min 3 min), the “PV Max, individual patient” value amounted to 26 cm/sec. Moreover, in the series on patients (setting [4]), the “MV Max, individual patient” value worked out at 21 cm/s; the “MV Min, individual patient” value was 19 cm/s; the “PV Min, individual patient” value worked out at 23 cm/sec. Also, the “PV Max, individual patients” value in the series on patients (DIP dose 35 μg/kg bolus alone, ADE 140 μg/kg/min 3 min) was 23 cm/sec and 40 cm/sec. In the series with patients (setting [5]), the “MV Max, individual patients” value is 20 cm/s and 28 cm/s; the “MV Min, individual patients” value is 18 cm/s and 22 cm/s; the “PV Min, individual patients” value was 21 cm/sec and 30 cm/sec. Besides, the “PV Max, individual patients” value in the series with patients (DIP dose 40 μg/kg bolus alone, ADE 140 μg/kg/min 3 min) is 35 cm/sec and 40 cm/sec. Also, in the series on patients (setting [6]), the “MV Max, individual patients” value was 25 cm/s and 29 cm/s; the “MV Min, individual patients” value is 23 cm/s and 24 cm/s; the “PV Min, individual patients” value is 33 cm/sec and 34 cm/sec. Also, in the series with patients (dipyridamole alone, bolus 28, 35 or 40 μg/kg), the “Effect on peak and mean diastolic velocities” value is “did not modify”. Besides, in the series on patients (in vivo), the “Symptoms recorded during a follow-up of 10 minutes” value is given as “No symptoms”. Moreover, the “Effect in preliminary dose ranging studies” value in series [3] is on record as “no effect”.
